From PMC9291755, “The Effect of Food on the Pharmacokinetics of the Potassium‐Competitive Acid Blocker Vonoprazan” (Clinical Pharmacology in Drug Development, 2021)
Entries after “also recorded” stand apart in the source; their conditions may differ. Read-outs that look alike come from different tables or passages of the source.

Columns and labels:
[1] = design: method as in PMID 25707624; conditions: 20 mg once daily after ≥10-hour fast, cited from earlier work
[2] = design: method as in PMID 17575528, PMID 21132072; conditions: no enteric coating required; cited from earlier work
[3] = tested on: gastric acid secretion; design: method as in PMID 26111126; conditions: single doses ≥20 mg, clinical studies; cited from earlier work
[4] = Phase 1 randomized open-label crossover food-effect pharmacokinetic study, plasma vonoprazan by LC-MS/MS; format: in vivo, healthy Caucasian male and female subjects (human); conditions: for AUC / Cmax / tmax: po, 20 mg; for tmax: read-out: tmax, median (min, max)
Procedure: This was a randomized, open‐label, 2×2 crossover, phase 1 study stratified by gender in healthy Caucasian male and female subjects. The study was conducted at a single site in Northern Ireland (MDS Pharma Services, Belfast, Northern Ireland). The study was approved by an independent ethics committee (Edinburgh Independent Ethics Committee, Edinburgh, Scotland). Written informed consent was obtained from all subjects before study initiation.
The enrolled study population included 12 men and 14 women aged 18 to 45 years, of Caucasian ethnicity, considered eligible on the basis of study inclusion and exclusion criteria. To be eligible, subjects must have been in good health and have had clinical laboratory evaluations (including clinical chemistry, hematology, and urinalysis) within the reference range for the testing laboratory, or only minor deviations that were deemed by the investigator to be clinically nonsignificant. Additional inclusion criteria included a body mass index between 18 and 30 kg/m^2 and a willingness to provide written informed consent before any screening procedures; abstention from caffeine, alcohol, and strenuous exercise from 72 hours before dosing until the follow‐up call/visit; and use of adequate contraception from screening, throughout the study, and for 30 days following the last dose of study medication (applicable to female subjects of childbearing potential who were sexually active) or for 12 weeks after the follow‐up visit (applicable to male subjects with female partners, both of whom were required to use contraception). In addition to caffeine and alcohol, subjects who had received the following were excluded from participation: nicotine products 6 weeks before the first dose of study medication; antibiotics within 28 days prior to initial screening; prescription medication or St. John's wort, ginseng, kava, ginkgo biloba, melatonin, herbal or homeopathic preparations, or other nutriceuticals within 28 days before the first dose; over‐the‐counter medication including salicylates (except when approved on a case‐by‐case basis) or vitamin supplements within 14 days before the first dose; and grapefruit or grapefruit products, Seville oranges (sour) or products, or poppy seeds within 7 days before the first dose.
Subjects were randomized to either the fed/fasted state or fasted/fed state sequence, with randomization stratified by sex. Eligible subjects received a single 20‐mg dose of vonoprazan (given as two 10‐mg tablets) either following an overnight fast or 30 minutes after a breakfast (≈900 calories, with 62% of the calories from fat, 23% from carbohydrate, and 14% from protein).
After a 5‐day washout period, subjects received a second 20‐mg dose of vonoprazan in the alternative fed/fasted state, and the identical process was performed. During dosing in the fasted state, subjects fasted for 10 hours before receiving the study drug. During dosing in the fed state, subjects fasted for 10 hours and then consumed the breakfast, which was started 30 minutes before dosing and eaten in ≤30 minutes. Vonoprazan was taken with 240 mL of water, and subjects refrained from eating for 4 hours after dosing. Water (200 mL) was given to all subjects at 2 and 4 hours after dosing. All administrations of vonoprazan were taken under supervision.
Plasma concentrations of vonoprazan were determined using a liquid chromatography–tandem mass spectrometry assay with a validated concentration range of 0.1 to 100 ng/mL. A total of 864 samples were analyzed in 13 reported batches. The bioanalytical method utilized protein precipitation and extraction of plasma samples with acetonitrile‐formic acid (100:0.2, v/v) before analysis by liquid chromatography–tandem mass spectrometry. […]

[5] = cited from earlier work
[6] = design: method as in PMID 26369775; conditions: single 20 mg, cited from earlier work
[7] = tested on: cytochrome P450 (CYP) 3A4; design: method as in PMID 26369775, PMID 29383028, PMID 27414183; conditions: lesser extent by CYP2B6, CYP2C19, CYP2D6; cited from earlier work
[8] = design: method as in PMID 25707624, PMID 28198590, PMID 26193978, PMID 31990424; conditions: 212 healthy volunteers, daily doses up to 40 mg for up to 7 days; cited from earlier work
[9] = Safety/tolerability in the food-effect study (adverse events, vital signs, ECG, laboratory tests); conditions: for Incidence of AEs: single 20-mg dose, 24 subjects
Source text: Safety variables included physical examination findings; vital signs; electrocardiograms; clinical laboratory evaluations including hematology, chemistry, and urinalysis; and treatment‐emergent adverse events (AEs).
The safety analysis set comprised all enrolled subjects who received at least 1 dose of vonoprazan and was used for safety and baseline demographics summaries.

[10] = design: method as in PMID 25707624; conditions: 20 mg once daily after ≥10-hour fast, cited from earlier work; remark: listed apart in the source
[11] = 12 healthy Japanese adult men, unchanged vonoprazan
[12] = single 20-mg doses, fed and fasted

For `CNCc1cc(-c2ccccc2F)n(S(=O)(=O)c2cccnc2)c1.O=C(O)/C=C/C(=O)O` [vonoprazan, 1‐[5‐(2‐fluorophenyl)‐1‐(pyridin‐3‐ylsulfonyl)‐1H‐pyrrol‐3‐yl]‐N‐methylmethanamine monofumarate], the tmax ([1]; day 1, Japanese study) is listed as 1.5 h, the tmax ([1]; day 7, Japanese study) is listed as 1.5 h and the acid stability [2] is listed as “acid stable”. For the same compound, the Tolerability [3] was “well tolerated”, the duration of action [3] was 24 h and the onset of action [3] was less than 4 h. The AUC ([4]; both sexes, human, plasma, single 20-mg oral dose, fasted, N = 24, read-out: AUC0‐24, least-squares mean) was 0.154 µg·h/mL, the AUC ([4]; both sexes, human, plasma, single 20-mg oral dose, fasted, N = 24, read-out: AUC0‐∞, least-squares mean) was 0.171 µg·h/mL and the Cmax ([4]; both sexes, human, plasma, single 20-mg oral dose, fasted, N = 24, read-out: Cmax, least-squares mean) was 0.0173 µg/mL. The AUC ([4]; both sexes, human, plasma, single 20-mg oral dose, fasted, n = 24, plasma, read-out: AUC0‐24, mean (SD)) was 0.161 µg·h/mL, the AUC ([4]; both sexes, human, plasma, single 20-mg oral dose, fasted, n = 24, plasma, read-out: AUC0‐∞, mean (SD)) was 0.179 µg·h/mL and the Cmax ([4]; both sexes, human, plasma, single 20-mg oral dose, fasted, n = 24, plasma, read-out: Cmax, mean (SD)) was 0.0182 µg/mL. It also gave a tmax ([4]; both sexes, human, plasma, single 20-mg oral dose, fasted, n = 24) of 2 h, a Cmax ([4]; both sexes, human, plasma, single 20-mg oral dose, fed (high-fat breakfast), n = 24, plasma, read-out: Cmax, mean (SD)) of 0.0189 µg/mL and an AUC ([4]; both sexes, human, plasma, single 20-mg oral dose, fed, N = 24, read-out: AUC0‐24, least-squares mean) of 0.174 µg·h/mL. For the same compound, the AUC ([4]; both sexes, human, plasma, single 20-mg oral dose, fed, N = 24, read-out: AUC0‐∞, least-squares mean) was 0.196 µg·h/mL, the Cmax ([4]; both sexes, human, plasma, single 20-mg oral dose, fed, N = 24, read-out: Cmax, least-squares mean) was 0.0182 µg/mL and the AUC ([4]; both sexes, human, plasma, single 20-mg oral dose, fed, n = 24, plasma, read-out: AUC0‐24, mean (SD)) was 0.181 µg·h/mL. It also gave an AUC ([4]; both sexes, human, plasma, single 20-mg oral dose, fed, n = 24, plasma, read-out: AUC0‐∞, mean (SD)) of 0.206 µg·h/mL, a tmax ([4]; both sexes, human, plasma, single 20-mg oral dose, fed, n = 24) of 4 h and a half-life ([4]; both sexes, human, plasma, single 20-mg oral dose, fed, n = 24, read-out: t1/2 (terminal elimination half-life), mean (SD) (converted)) of 6.9 h. The “Effect of food on exposure” value ([4]; single 20-mg dose, fed vs fasted, CI within 80% to 125%) was “not meaningfully affected by food; also recorded: not materially affected by food”, the “AUC0‐24, fed/fasted ratio of geometric (least-squares) means” value ([4]; single 20-mg oral dose, N = 24) was 1.13 and the “AUC0‐∞, fed/fasted ratio of geometric (least-squares) means” value ([4]; single 20-mg oral dose, N = 24) was 1.15. For the same compound, the “Cmax, fed/fasted ratio of geometric (least-squares) means” value ([4]; single 20-mg oral dose, N = 24) was 1.05, the “t1/2 (terminal elimination half-life), mean (SD)” value ([4]; single 20-mg oral dose, fasted, n = 24) was 6.9 (1.45) h and the “influence of CYP2C19 polymorphisms on pharmacokinetics” value ([5]; Japanese repeated-dose study and earlier phase 1 study) was “not influenced by CYP2C19 polymorphisms”. For the same compound, the “accumulation in plasma after multiple doses” value ([5]; doses from 10 to 40 mg, days 1 and 7) was “little to no accumulation”, the “median time of peak plasma concentrations (tmax)” value ([5]; oral, once-daily dosing) was no more than 2 h and the “AUC0‐48, fed/fasted ratio” value [6, 11] was 1.08. The “Cmax, fed/fasted ratio” value [6, 11] was 1.09, the “AUC0‐∞” value ([6]; fasted state, Japanese men) was 0.2253 µg·h/mL and the Cmax ([6]; fasted state, Japanese men) was 0.0243 µg/mL. For the same compound, the median tmax ([6]; fasted state, Japanese men) was 1.5 h, the t1/2 ([6]; fasted state, Japanese men) was 7.7 h and the median tmax ([6]; fed state, Japanese men) was 3.0 h. For the same compound, the metabolizing enzymes [7] was “primarily metabolized by cytochrome P450 (CYP) 3A4”, the safety signals [8] was “no safety signals” and the “Incidence of AEs” value ([9]; fasted state) was 12.5%. The “Incidence of AEs” value ([9]; fed state) was 8.3%, the Tolerability ([9]; single 20-mg doses given on 2 occasions, healthy subjects) was “safe and well tolerated” and the “Changes in liver function tests” value [9, 12] was “no obvious treatment‐emergent changes”. For the same compound, the “Changes in vital signs, 12-lead electrocardiograms, laboratory safety tests” value [9, 12] was “no clinically important changes”, the “Serious AEs and deaths during the study” value [9, 12] was “No serious AEs and no deaths” and the “Severity of reported AEs” value [9, 12] was “mild”. The “Number of adverse events” value ([9]; whole study, four subjects affected) was 6, the tmax ([10]; day 1, UK study) was 1.5 h and the tmax ([10]; day 7, UK study) was 1.1 h.
